# “And” between values parts separate entries of the source, which are not always exact repeats. Equal values may be shown once.
# Biological target: T1, human P2X7 (Homo sapiens, UniProt Q99572)
# T1 construct: expressed in transfected cells
# T1 sequence (Q99572 1-595): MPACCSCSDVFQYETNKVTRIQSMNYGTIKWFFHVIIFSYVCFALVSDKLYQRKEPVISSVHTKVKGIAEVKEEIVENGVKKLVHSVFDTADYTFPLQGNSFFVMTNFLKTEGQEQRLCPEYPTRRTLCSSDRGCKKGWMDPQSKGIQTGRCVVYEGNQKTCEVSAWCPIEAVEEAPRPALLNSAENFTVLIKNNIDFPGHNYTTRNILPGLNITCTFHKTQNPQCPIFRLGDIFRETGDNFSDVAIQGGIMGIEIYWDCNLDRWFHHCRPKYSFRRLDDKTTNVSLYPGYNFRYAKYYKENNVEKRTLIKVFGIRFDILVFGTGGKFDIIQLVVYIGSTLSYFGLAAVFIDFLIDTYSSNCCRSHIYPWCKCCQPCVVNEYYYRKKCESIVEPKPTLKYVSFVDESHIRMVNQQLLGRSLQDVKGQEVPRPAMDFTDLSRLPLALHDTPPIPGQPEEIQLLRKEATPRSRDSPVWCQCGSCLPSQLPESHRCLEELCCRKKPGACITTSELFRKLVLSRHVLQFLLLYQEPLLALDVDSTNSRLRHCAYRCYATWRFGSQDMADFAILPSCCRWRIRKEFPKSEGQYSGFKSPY
# Experiment: YO-PRO-1 dye uptake assay in HEK-hP2X7 cells
# Assay type: cell-based
# Conditions: 10 µM glycoside; for ATP-induced YO-PRO-1 response in fixed-concentration screen: 200 µM ATP, compared with ATP + DMSO; for PAM effect on ATP dose-response curve: HEK-hP2X7, result in words; for EC50 ratio: average EC50 for ATP + vehicle of each set of experiments used; for Maximum response (fold increase): maximum response defined at 1 mM ATP
# Description: ATP-induced dye uptake experiments were performed as described previously ([Bidula et al., 2019b]). Briefly, HEK-hP2X7 cells were plated at 2 × 10^4 cells per well (100 μl per well) in complete medium and left overnight to attach to poly-D-lysine–coated 96-well plates. YO-PRO-1 iodide was prepared in a low divalent buffered solution ([…], 2 mM KCl, 13 mM D-glucose, 10 mM HEPES, 0.2 mM CaCl2 pH 7.3) to a final concentration of 2 μM. Medium was removed from the plate using a manual multichannel pipette and YO-PRO-1 containing buffer applied to wells (180 μl per well). […] A Flexstation 3 plate reader (Molecular Devices, Sunnyvale, CA) was used to record YO-PRO-1 fluorescence in HEK-hP2X7 for 300 seconds after the addition of ATP (at 10× final concentration) with/without ginsenoside compounds or vehicle (DMSO). Plates were allowed to warm up to 37°C for 10 minutes before initiating the recording. Baseline recordings were made for 40 seconds before compound addition using the Flexstation 3 fluidics system. YO-PRO-1 fluorescence was measured at 520 nm after excitation at 490 nm (auto cutoff at 495 nm), and the sample interval was 3.5 seconds. Flexstation settings were photomultiplier tube (PMT) medium, six reads per well, pipette height 170, and a rate of injection of 3. Data were acquired using Softmax Pro version 5.4 (Molecular Devices). To analyze the data, area under the dye uptake curve was calculated in Softmax Pro version 5 using zero baseline data with a lag time of 50 seconds (50–300 seconds).
# Results are expressed as means ± S.D. from the indicated number of experiments. For YO-PRO-1 dye uptake and intracellular calcium experiments, each independent experiment used triplicate wells, and the means of the replicates were collated and plotted. Technical replicates were used to ensure reliability of fluorescence values. […] Dose-response curves were plotted by a nonlinear regression fit with variable slope using GraphPad Prism software version 7. Half-maximal responses are expressed as EC50 values with 95% confidence intervals. These values were calculated from the collated data for each compound from three independent experiments. Statistical differences were determined by analysis of the data by one-way ANOVA followed by Dunnett’s multiple comparison test or Sidak’s multiple comparison test using GraphPad Prism version 7. P < 0.05 was the accepted minimum level of significance.
Compound,ATP-induced YO-PRO-1 response in fixed-concentration screen,PAM effect on ATP dose-response curve,EC50 ratio,Maximum response (fold increase)
"CC(C)=CCC[C@](C)(O)[C@H]1CC[C@]2(C)[C@@H]1[C@H](O)C[C@@H]1[C@@]3(C)CC[C@H](O[C@@H]4O[C@H](CO)[C@@H](O)[C@H](O)[C@H]4O[C@@H]4O[C@H](CO)[C@@H](O)[C@H](O)[C@H]4O)C(C)(C)[C@@H]3CC[C@]12C (single isomer, unassigned) [ginsenoside-Rg3 (mixed isomers), ginsenoside-Rg3]","small increase in the ATP-induced YO-PRO-1 response, which was not statistically significant",–,–,–
"CC[C@H](CC[C@@H](C)[C@H]1CC[C@H]2[C@@H]3CC=C4C[C@@H](O[C@@H]5O[C@H](CO)[C@@H](O)[C@H](O)[C@H]5O)CC[C@]4(C)[C@H]3CC[C@]12C)C(C)C [Daucosterol, daucosterol]",–,no effect on the ATP dose-response curves,0.7,1.33 fold
"COC(=O)[C@@]1(C)CC[C@]2(C(=O)O)CC[C@]3(C)C(=CC[C@@H]4[C@@]5(C)C[C@H](O)[C@H](O[C@@H]6OC[C@@H](O[C@@H]7O[C@H](CO)[C@@H](O)[C@H](O)[C@H]7O)[C@H](O)[C@H]6O)[C@@](C)(CO)[C@@H]5CC[C@]43C)[C@@H]2C1 [Esculentoside A, esculentoside A]",no modulation of P2X7,inactive,0.8,0.94 fold
"CC(C)=CCC[C@@](C)(O)[C@H]1CC[C@]2(C)[C@@H]1[C@H](O)C[C@@H]1[C@@]3(C)CC[C@H](O[C@@H]4O[C@H](CO)[C@@H](O)[C@H](O)[C@H]4O)C(C)(C)[C@@H]3CC[C@]12C [Ginsenoside-20(R)-Rh2, 20(R)-ginsenoside-Rh2]",–,–,0.8,1.53 fold
"CC(C)=CCC[C@](C)(O)[C@H]1CC[C@]2(C)[C@@H]1[C@H](O)C[C@@H]1[C@@]3(C)CC[C@H](O[C@@H]4O[C@H](CO)[C@@H](O)[C@H](O)[C@H]4O)C(C)(C)[C@@H]3CC[C@]12C [Ginsenoside-20(S)-Rh2, 20(S)-ginsenoside-Rh2]",–,–,1.8,2.6 fold
"CC(C)=CCC[C@](C)(O[C@@H]1O[C@H](CO[C@@H]2O[C@H](CO)[C@@H](O)[C@H](O)[C@H]2O)[C@@H](O)[C@H](O)[C@H]1O)[C@H]1CC[C@]2(C)[C@@H]1[C@H](O)C[C@@H]1[C@@]3(C)CC[C@H](O[C@@H]4O[C@H](CO)[C@@H](O)[C@H](O)[C@H]4O[C@@H]4O[C@H](CO)[C@@H](O)[C@H](O)[C@H]4O)C(C)(C)[C@@H]3CC[C@]12C [Ginsenoside-Rb1, ginsenoside-Rb1]",–,only type I PAM activity,1.2,1.9 fold and 1.96 fold
"CC1(C)[C@@H](O[C@H]2O[C@H](C(=O)O)[C@@H](O)[C@H](O)[C@H]2O[C@@H]2O[C@H](C(=O)O)[C@@H](O)[C@H](O)[C@H]2O)CC[C@]2(C)[C@H]3C(=O)C=C4[C@@H]5C[C@@](C)(C(=O)O)CC[C@]5(C)CC[C@@]4(C)[C@]3(C)CC[C@@H]12 [Glycyrrhizic acid, glycyrrhizic acid]",no modulation of P2X7,–,–,–
"CC(C)=CCC[C@@](O)(CO[C@@H]1O[C@H](CO)[C@@H](O)[C@H](O)[C@H]1O)[C@H]1CC[C@]2(C)[C@@H]1CC[C@@H]1[C@@]3(C=O)CC[C@H](O[C@@H]4OC[C@H](O)[C@H](O[C@@H]5OC[C@@H](O)[C@H](O)[C@H]5O)[C@H]4O[C@@H]4O[C@@H](C)[C@H](O)[C@@H](O)[C@H]4O)C(C)(C)[C@@H]3CC[C@]12C [Gypenoside XLIX, gypenoside XLIX]","small increase in the ATP-induced YO-PRO-1 response, which was not statistically significant",did not reduce the EC50 value for ATP,0.9,1.9 fold

# Source: paper PMC7816042, “Insights into the Structure-Activity Relationship of Glycosides as Positive Allosteric Modulators Acting on P2X7 Receptors” (Molecular Pharmacology, 2021)
